Measured values reported in patent publication US9526915B2, “Methods for regulating cell mitosis by inhibiting serine/threonine phosphatase” (priority 2008, dated 2016).
“And” between values parts separate entries of the source, which are not always exact repeats. Equal entries are not always repeated.

Assays:
[1] = tested on: human glioblastoma cell line, U373; assay: U373 growth in culture for 7 days, Compound 100 with standard cytotoxic drugs; assay type: cell-based; conditions: Compound 100 2.5 uM, cisplatin 0.1 uM, doxorubicin 0.01 uM, taxol 0.3 nM
Protocol: Cells were exposed to vehicle alone (control); Compound 100 at 2.5 uM; cisplatin at 0.1 uM; doxorubicin at 0.01 uM; or taxol at 0.3 nM alone or to the combination of Compound 100 plus each of the standard agents at the same concentrations. […] The expected percent inhibition at 7 days is the product of the inhibition by each agent alone.
Cells were exposed to vehicle alone (control); compound 100 at 2.5 μM, cisplatin at 0.1 μM; doxorubicin at 0.01 μM; or taxol at 0.3 nM alone or to the combination of compound 100 plus each of the standard agents at the same concentrations. […] The expected percent inhibition from a combination of drugs is calculated by multiplying the actual percent inhibition by each drug alone and comparing that product to the actual percent inhibition caused by the combination of the two drugs (Valeriote, 1975). The expected percent inhibition at 7 days is the product of the inhibition by each agent alone.

[2] = tested on: DAOY medulloblastoma cells; assay: DAOY medulloblastoma s.c. xenografts in SCID mice; assay type: in vivo; conditions: treatment from day 6, by day 23
Protocol: DAOY medulloblastoma cells were implanted subcutaneously into the flanks of SCID mice. On day 6, mice were divided into 3 groups, one group receiving Compound 100, one group receiving Compound 102, and one group receiving vehicle alone. The subcutaneous tumor masses were measured on day 6, day 13, day 18, and on day 23 when all animals were sacrificed. […] In this model DAOY cells, when untreated, reached their maximum growth about 2 weeks after implantation with slow regression thereafterwards.

[3] = tested on: U87 glioblastoma multiforme cells; assay: U87 s.c. xenografts in SCID mice, Compound 100; assay type: in vivo; conditions: treatment from day 7, measured to day 26
Protocol: SCID mice were implanted with 5×10^6 U87 cells subcutaneously. On day 7 treatment was begun on half of the animals. The size of the subcutaneous mass of tumor cells was measured weekly until the animals were sacrificed on day 26.

TCTP = TCTP in U87 xenografts by 2-dimensional gel electrophoresis; assay type: in vivo, SCID mice; conditions: 1.5 mg/kg IP, 4 hours
Protocol: SCID mice were implanted with 5×10^6 U87 cells subcutaneously. On day 26, the mice were given 1.5 mg/kg Compound 100 by IP injection. The animals were sacrificed after 4 hours treatment and the subcutaneous mass of tumor cells were removed for 2-dimensional gel electrophoretic analysis. […] In the left panel, TCTP subsequently identified by LC-MS-MS is circled and shown in an enlargement of the gel.
SCID mice were implanted with 5 million U87 cells subcutaneously. On day 26, the mice were administered 1.5 mg/kg of compound 100 by intraperitoneal injection. The animals were sacrificed after 4 hours of treatment and the subcutaneous mass of tumor cells were removed for 2-dimensional gel electrophoretic analysis.

[4] = tested on: DAOY medulloblastoma cells; assay: Western blot of DAOY cell lysates for TCTP, p-Plk, total Plk; assay type: cell-based, human
Protocol: DAOY cells in culture were exposed to Compound 100 for 4 hours and for 24 hours, and stained for TCTP, p-Plk and total Plk on western blots.
DAOY cells in culture were exposed to compound 100 for 4 hours and for 24 hours, and stained for TCTP, p-plk (phosphorylated plk), and total plk on western blots.

DAOY cells = assay: Immunofluorescence of alpha-tubulin and Plk-1 in DAOY cells; assay type: cell-based, human; conditions: 5 μM, 4 hours
Protocol: DAOY cells growing in tissue culture were exposed to 5 μM Compound 100 for 4 hours. The cells were rinsed, fixed, and stained for immunofluorescent recognition of alpha-tubulin and Plk-1. Control cells at the left show in the upper left panel diffuse staining for alpha-tubulin distributed throughout the cytoplasm. […] The lower right panel, stained for Plk-1, alpha-tubulin, and DNA show the almost pure extra nuclear location of homogeneously distributed alpha-tubulin. The right panel consists of 4 elements showing the effects of exposure to Compound 100.

human cancer cell lines = assay: Cancer cell proliferation in cell culture; assay type: cell-based
U373 cells [5] = assay: Western blots of U373 cells; assay type: cell-based, human; conditions: U373, 2 nM, 24 hours
Protocol: (§1) 5×10^6 U87MG cells were inoculated s.c. into each flank of 20 SCID mice. When the xenografts were 0.5+/−0.1 cm (day 0), 5 animals each received i.p. vehicle alone days 1-12 (50% DMSO/H20); compound 102 alone at 1.5 mg/kg days 1-3, 5-7, & 9-11; TMZ alone at 80 mg/kg days 4, 8, 12; or both drugs at the same doses and schedules. If xenografts reached 1800 mm^3, animals were sacrificed. […] B, Survival curve combining the data from the study shown in FIG. 12A, with a second identical study involving a total of 10 animals with two xenografts each. Disease-free survival was defined as no recurrence of either xenografts. […] As in 12A, except that xenografts of SH-SY5Y cells were implanted in one flank only and animals were treated with one additional cycle of drugs, i.e., compound 102 on days 13-15, TMZ, on day 16, and compound 102 plus TMZ on the same schedules. […] E, Western blots of U87 cells in culture 24 hours after exposure to compound 102 at 2.5 uM, TMZ at 25 uM or DOX at 2 uM, and compound 102 plus TMZ or DOX. F, Western blots of U373 cells 24 hours after exposure to compound 102 at 2.5 uM, doxorubicin at 2 uM, and both drugs. G, Western blots of U373 cells 24 hours after exposure to TMZ at 25 uM, okadaic acid at 2 nM, and both drugs.

U87MG xenografts = assay: U87MG s.c. xenografts in SCID mice, compound 102 and TMZ; assay type: in vivo; conditions: same doses and schedules
Protocol: as §1
To determine the impact of altering DNA-damage defense mechanisms by inhibiting PP2A on the efficacy of cytotoxic chemotherapy, the effects of compound 102 combined with TMZ, a non-specific DNA-methylating drug, routinely used for the palliative treatment of GBM patients (Prados et al, 2008), were studied. SCID mice bearing s.c. xenografts of either the GBM line U87MG or the neuroblastoma line SH-SY5Y were treated with vehicle alone, compound 102 alone, TMZ alone, or both drugs at the same doses and schedules as when given alone.

U87MG cells = assay: Cellular and molecular changes in U87MG cells (Western blots, IFS); assay type: cell-based, human; conditions: U87MG, 24 hours; compound 102 2.5 uM, TMZ 25 uM, DOX 2 uM
Protocol: D, Western blots of U87 lysates: TCTP, pPlk (Tre-210), total Plk, and β-actin. E, IFS of TCTP in U87 cells, F, Western blots p53 (ser-15), pMDM2 (ser-166), and β-actin and G, IFS of p53 (ser-15).
as §1
TCTP is an abundant, highly conserved, multifunctional protein that binds to and stabilizes microtubules before and after mitosis and also exerts potent anti-apoptotic activity (Bommer and Thiele, 2004; Yarm, 2002; Susini et al, 2008) (FIG. 11E).
[…] Akt-1 activation, however, may be anti- or proapoptotic depending on the context of cell signaling (Andrabi et al, 2007).
The effects of compound 102, TMZ, doxorubicin (DOX), a widely used anti-cancer drug that disrupts DNA replication, compound 102 plus TMZ, and compound 102 plus DOX on the amount of pAkt, p53 and MDM2 in U87MG, a cell line with wild-type p53, and in U373, a cell line with mutant p53 (Short et al, 2007) were assessed by Western blots.

U373 cells [6] = assay: Cell cycle distribution of U373 cells by FACS; assay type: cell-based, human; conditions: U373, 48 hours
Protocol: Cells in unsynchronized logarithmic growth were exposed to vehicle or drug and adherent cells and cells in the media were collected. Harvested cells were fixed with 70% cold ethanol for 20 min at −20 degrees, washed with PBS, and stained with 10 ug/ml of PI and 1 ug/ml RNAse in TBS for 30 minutes and analyzed by FACS. A, Flow cytometry profiles of U87 cells after exposures to DMSO only, compound 102 only, 5 uM; TMZ only, 25 uM; compound 102 with TMZ combination, doxorubicin only, 2.0 uM and compound 102 with doxorubicin combination. B, Flow cytometry profiles of U373 cells. Exposures as in A, and C, Schema of proposed mechanisms of compound 102 enhancement of cancer chemotherapy.
We analyzed cell cycle patterns of U87MG and U373 cells 48 hours after exposure to TMZ or DOX alone and in combination with compound 102.

Which “inhibition at 7 days by agent alone” value [1] does the source give for `CN1CCN(C(=O)C2C(C(=O)O)[C@H]3CC[C@@H]2O3)CC1` (some centres unmarked) [Compound 100] here?
Its value is 71%.

And the “DAOY subcutaneous tumor mass” value [2]?
The value was “marked regression”.

What about the “U87 subcutaneous xenograft growth” value [3] of the same molecule?
The value was “Inhibition”.

What about the “TCTP concentration in U87 xenografts” value (TCTP) of the same molecule?
Its value is “diminution in TCTP”.

What about the “Plk-1 phosphorylation (western blot)” value ([4]; 4 hours) of the same molecule?
The value was “increase”.

And the “TCTP (western blot)” value ([4]; 4 hours)?
The value was “decrease”.

What about the “TCTP (western blot)” value ([4]; 24 hours) of the same molecule?
The value was “no TCTP is detectable”.

And the alpha-tubulin distribution (DAOY cells)?
The alpha-tubulin distribution was “marked distortion of the homogeneous distribution”.

And the “inhibition of human cancer cell lines” value (human cancer cell lines; breast, colon, stomach, liver, ovary, prostate, brain, lung, leukemias, lymphomas)?
The value was “dose dependent inhibition”.

What about the “effect of higher doses on tumor cells” value (human cancer cell lines; higher doses) of the same molecule?
Its value is “mitotic catastrophe and cell death”.

And the “growth of tumor cells at non-inhibitory doses” value (human cancer cell lines; submicromolar to very low micromolar concentrations)?
Its value is “slight but clear-cut stimulation”.

`C=C1[C@@H](O)[C@@H]2O[C@]3(CC[C@H](/C=C/[C@@H](C)[C@@H]4CC(C)=C[C@@]5(O[C@H](C[C@@](C)(O)C(=O)O)CC[C@H]5O)O4)O3)CC[C@H]2O[C@@H]1[C@@H](O)C[C@H](C)[C@H]1O[C@@]2(CCCCO2)CC[C@H]1C` [Okadaic acid, okadaic acid, reference compound] was tested. Which “effects on pAkt-1 and on mutant p53” value (U373 cells [5]) did it give?
Its value is “mimicked the effects of compound 102”.

For `Cn1nnc2c(C(N)=O)ncn2c1=O` [TMZ, temozolomide, reference compound], which “time of sacrifice (xenografts reached 1800 mm^3)” value (U87MG xenografts) is on record?
The value was 7-9 week.

`N.N.[Cl][Pt][Cl]` [cisplatin] was tested. Which “inhibition at 7 days by agent alone” value [1] did it give?
Its value is 93.5% and 93%.

Which MDM2 (U87MG cells) does the source give for `COc1cccc2c1C(=O)c1c(O)c3c(c(O)c1C2=O)C[C@@](O)(C(=O)CO)C[C@@H]3O[C@H]1C[C@H](N)[C@H](O)[C@H](C)O1` [doxorubicin, reference compound] here?
The MDM2 was “little effect”.

And the p53 (U87MG cells)?
Its p53 is “increased”.

What about the pAkt-1 (U87MG cells) of the same molecule?
Its pAkt-1 is “decreased”.

And the G1 phase cells (U373 cells [6]; compound 102 5 uM, TMZ 25 uM, doxorubicin 2.0 uM)?
The G1 phase cells was “reduced”.

And the G2/M phase cells (U373 cells [6]; same concentrations)?
Its G2/M phase cells is “reduced”.

What about the S phase cells (U373 cells [6]; same concentrations) of the same molecule?
Its S phase cells is “greatly increased”.
